What was measured:
[1] = test system: normal primary NK cells, pool 3 (3 donors) (IL-2 2.5 ng/mL); assay: percent inhibition of viability; higher = more inhibition; conditions: 72 h
[2] = test system: NK-92 (IL-2 2.5 ng/mL); assay: as above; conditions: 72 h
[3] = test system: SNK-6 (IL-2 2.5 ng/mL); assay: as above; conditions: 72 h
[4] = test system: normal primary NK cells, pool 1 (3 donors), resting (IL-2 0 ng/mL); assay: as above; conditions: 72 h
[5] = test system: YT (IL-2 2.5 ng/mL); assay: as above; conditions: 72 h
[6] = test system: normal primary NK cells, pool 2 (3 donors) (IL-2 2.5 ng/mL); assay: as above; conditions: 72 h
[7] = test system: normal primary NK cells, pool 1 (3 donors) (IL-2 2.5 ng/mL); assay: as above; conditions: 72 h
[8] = test system: DERL-7 (IL-2 2.5 ng/mL); assay: as above; conditions: 72 h
[9] = test system: IMC-1 (IL-2 20 ng/mL); assay: as above; conditions: 72 h
[10] = test system: NKL (IL-2 2.5 ng/mL); assay: as above; conditions: 72 h
[11] = test system: NK-YS (IL-2 2.5 ng/mL); assay: as above; conditions: 72 h
[12] = test system: KAI3 (IL-2 2.5 ng/mL); assay: as above; conditions: 72 h
[13] = test system: KHYG-1 (IL-2 2.5 ng/mL); assay: as above; conditions: 72 h
[14] = test system: normal NK cells expanded with K562-aAPC; assay: drug sensitivity score (DSS) (DSS units); higher = more sensitive; extreme values may be limits of the assay; conditions: 72 h; IL-2 2.5 ng/mL
Method: (§1)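 Drug sensitivity and resistance testing on K562-aAPC-expanded normal NK cells: 5 concentrations (10-fold steps over a 10,000-fold range), 72 h at 37 °C, viability by CellTiter-Glo normalised to DMSO and benzethonium chloride controls; DSS from the fitted curve.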

[15] = test system: normal NK cells expanded with K562-aAPC; assay: percent inhibition of viability; higher = more inhibition; conditions: 72 h, IL-2 2.5 ng/mL
Method: as §1

[16] = test system: normal primary NK cells, pool 3 (3 donors) (IL-2 2.5 ng/mL); assay: drug sensitivity score (DSS) (DSS units); higher = more sensitive; extreme values may be limits of the assay; conditions: 72 h
[17] = test system: NK-92 (IL-2 2.5 ng/mL); assay: as above; conditions: 72 h
[18] = test system: SNK-6 (IL-2 2.5 ng/mL); assay: as above; conditions: 72 h
[19] = test system: normal primary NK cells, pool 1 (3 donors), resting (IL-2 0 ng/mL); assay: as above; conditions: 72 h
[20] = test system: YT (IL-2 2.5 ng/mL); assay: as above; conditions: 72 h
[21] = test system: normal primary NK cells, pool 2 (3 donors) (IL-2 2.5 ng/mL); assay: as above; conditions: 72 h
[22] = test system: normal primary NK cells, pool 1 (3 donors) (IL-2 2.5 ng/mL); assay: as above; conditions: 72 h
[23] = test system: DERL-7 (IL-2 2.5 ng/mL); assay: as above; conditions: 72 h
[24] = test system: IMC-1 (IL-2 20 ng/mL); assay: as above; conditions: 72 h
[25] = test system: NKL (IL-2 2.5 ng/mL); assay: as above; conditions: 72 h
[26] = test system: NK-YS (IL-2 2.5 ng/mL); assay: as above; conditions: 72 h
[27] = test system: KAI3 (IL-2 2.5 ng/mL); assay: as above; conditions: 72 h
[28] = test system: KHYG-1 (IL-2 2.5 ng/mL); assay: as above; conditions: 72 h

O=P1(N(CCCl)CCCl)NCCCO1 (stereo not given) [Cyclophosphamide] (max concentration tested 40000 nM)
percent inhibition of viability [%]
Conditions	4 nM	40 nM	400 nM	4000 nM	40000 nM
[1]	-7.23	-5.67	-9.18	0.96	16.7
[2]	-18.2	-9.83	-4.39	-1.7	10.6
[3]	7.84	-6.82	9.06	-4.15	10.8
[4]	-3.08	-15.2	-6.52	18.4	64.8
[5]	-4.55	-6.6	-7.59	-8.95	-8.31
[6]	-11	-0.5	-0.82	2.11	21.8
[7]	-10.4	-10.4	-10.4	1.26	30.9
[8]	-4.46	-3.5	-1.09	-0.28	5.07
[9]	-3.57	-3.7	-1.67	-7.03	-3.85
[10]	-11.1	-8.19	-4.09	-3.02	8.99
[11]	-5.26	-6.65	-2.31	-4.3	5.51
[12]	-3.45	3.79	4.87	17.2	40.9
[13]	-3.97	-6.87	-6.42	-6.18	-3.6
[15]	1.23	-1.48	-6.12	-0.37	32.1

Conditions	drug sensitivity score
[14]	1.42
[16]	0.44
[17]	0
[18]	0
[19]	6.32
[20]	0
[21]	1.01
[22]	1.52
[23]	0
[24]	0
[25]	0
[26]	0
[27]	3.77
[28]	0

COc1cccc2cc(-c3nc([C@H]4CC[C@H](C(=O)O)CC4)n4ncnc(N)c34)[nH]c12 [OSI-027] (max concentration tested 10000 nM)
percent inhibition of viability [%]
Conditions	1 nM	10 nM	100 nM	1000 nM	10000 nM
[1]	-5.61	1.81	2.65	24.4	23.8
[2]	2.75	14.2	11.7	37.3	67
[3]	4.93	11.4	9.18	31.7	55.4
[4]	-7.98	3.28	-0.52	18.1	13
[5]	2.96	3.52	7.55	26.5	62.3
[6]	-8.05	-2.56	3.22	27.2	24.8
[7]	-9.22	7.53	-13.9	16.4	24.5
[8]	7.51	-0.27	4.62	33.3	81.3
[9]	-0.57	-5.79	-6.31	-24.6	15.6
[10]	-11.8	-3.21	15.2	49.5	66
[11]	-5.3	-6.22	3.24	12.3	67.8
[12]	-2.08	0.41	9.85	34.9	65.5
[13]	-1.84	-0.78	4.77	18.4	68.1
[15]	-6.22	-5.68	3.76	21.5	48.2

Conditions	drug sensitivity score
[14]	4.91
[16]	4.17
[17]	8.91
[18]	7.2
[19]	2.18
[20]	6.33
[21]	4.93
[22]	2.65
[23]	8.48
[24]	0.09
[25]	10.9
[26]	5.77
[27]	7.92
[28]	6.5

CN1CCC(CNc2ccc3ncc(-c4cccc(OC(F)(F)F)c4)n3n2)CC1 [SGI-1776] (max concentration tested 10000 nM)
percent inhibition of viability [%]
Conditions	1 nM	10 nM	100 nM	1000 nM	10000 nM
[1]	-9.4	-9.39	-5.33	7.82	100
[2]	0.53	2.3	2.24	6.57	105
[3]	11.8	-1.96	7.5	-1.42	101
[4]	4.88	-2.56	18.3	29.4	99.8
[5]	2.03	-1.52	2.24	5.9	105
[6]	-5.28	-4.01	7.14	23.6	102
[7]	-1.59	-15.9	0.28	11.6	101
[8]	4.46	1.8	11.3	43.9	101
[9]	-2.53	-0.64	0.12	-0.28	101
[10]	-15.4	-12.2	-2.55	18.8	103
[11]	2.39	2.07	3.08	7.09	105
[12]	-4.36	-2.13	-0.56	14.2	104
[13]	2.2	0.67	5.12	10.8	104
[15]	0.39	2.03	3.74	25.6	101

Conditions	drug sensitivity score
[14]	9.44
[16]	6.78
[17]	6.86
[18]	5.51
[19]	9.01
[20]	6.74
[21]	9.22
[22]	7.48
[23]	10.6
[24]	5.65
[25]	8.62
[26]	6.92
[27]	7.99
[28]	7.47

Cc1ccc(-c2cc(C(F)(F)F)nn2-c2ccc(S(N)(=O)=O)cc2)cc1 [Celecoxib] (max concentration tested 10000 nM)
percent inhibition of viability [%]
Conditions	1 nM	10 nM	100 nM	1000 nM	10000 nM
[1]	-11.6	1.86	9.55	-0.12	12.8
[2]	-11.1	9.29	13.9	6.91	36.8
[3]	7.19	19.3	11.5	33.2	29.1
[4]	-5.64	-19.9	-6.8	-14.5	38.8
[5]	6.8	6.48	10.3	10.8	21.6
[6]	-5.46	-3.07	8.51	-1.27	21.4
[7]	-3.14	-6.46	-5.04	-13.6	17.4
[8]	-4.04	-0.66	2.98	0.77	20.1
[9]	-1.63	4.12	3.17	8.92	21.4
[10]	12.9	8.06	8.99	8.49	13.6
[11]	3.79	1.41	5.74	5.5	17.7
[12]	-0.1	5.86	3.78	10.9	16.6
[13]	-2.14	0.22	3.78	5.35	11.5
[15]	5.69	5.19	8.1	13.1	11.9

Conditions	drug sensitivity score
[14]	0.46
[16]	0.08
[17]	2.8
[18]	7.44
[19]	1.32
[20]	1.78
[21]	0.61
[22]	0.17
[23]	0.68
[24]	1.17
[25]	0
[26]	0.44
[27]	0.73
[28]	0

CNC(=O)c1cc(COc2nnc(Nc3ccc(Cl)cc3)c3ccoc23)ccn1 [Telatinib] (max concentration tested 10000 nM)
percent inhibition of viability [%]
Conditions	1 nM	10 nM	100 nM	1000 nM	10000 nM
[1]	-12.1	2.04	1.9	-5.46	-0.21
[2]	-14.3	7.86	8.96	9.44	25.7
[3]	-6.76	-18.2	-10.9	-17.2	39.8
[4]	-33.8	-3.86	0.16	-3.05	3.2
[5]	-6.03	-1.57	0.93	8.01	8.35
[6]	-8.51	7.4	6.24	-6.6	-0.18
[7]	-11.3	3.32	6.19	3.83	4.17
[8]	-7.49	-0.52	-1.32	7.55	16.5
[9]	-1.29	6.77	10.7	6.73	6.92
[10]	4.45	8.77	17.6	24.9	37.5
[11]	-3.24	-3.74	3.78	6.85	18
[12]	-1.15	-3.17	-1.98	4.4	17.6
[13]	-4.25	1.6	0.07	3.62	17.2
[15]	-1.26	-3.44	0.95	10.9	8.85

Conditions	drug sensitivity score
[14]	0.23
[16]	0
[17]	1.85
[18]	1.33
[19]	0
[20]	0
[21]	0
[22]	0
[23]	1
[24]	0.48
[25]	7.2
[26]	0.7
[27]	0.91
[28]	0.8
